Where a name gives a salt, the structure may show the parent alone.
Assay: TGA and DSC/mDSC thermal analysis (characterization of forms)
Format: physicochemical
Settings: for TGA weight loss (150° C., %) / DSC endotherm (° C., peak): crystalline salts
Method: In salt screening and evaluation and in polymorph study, TGA was performed using a TA Q500, TA Q5000 or Discovery 5500 TGA from TA Instruments. DSC or mDSC was performed using a TA Q200/Q2000 or Discovery 2500 DSC from TA Instruments.

Q: With `COc1ccc2ncnc(Nc3ccc(Oc4cc5ncnn5cn4)c(C)c3)c2c1O[C@@H]1CCN(C)CC1(F)F` [HCl Salt Type A, (R)-N-(4-([1,2,4]triazolo[1,5-c]pyrimidin-7-yloxy)-3-methylphenyl)-5-((3,3-difluoro-1-methylpiperidin-4-yl)oxy)-6-methoxyquinazolin-4-amine] as the molecule, how does the “TGA weight loss (150° C., %)” value (listed as HCl salt Type A) read?
A: 8.8%

Q: What about the “DSC endotherm (° C., peak)” value (listed as HCl salt Type A) of the same molecule?
A: 110.0 °C

Q: Which results are given for `COc1ccc2ncnc(Nc3ccc(Oc4cc5ncnn5cn4)c(C)c3)c2c1O[C@@H]1CCN(C)CC1(F)F` [Adipate Type A, (R)-N-(4-([1,2,4]triazolo[1,5-c]pyrimidin-7-yloxy)-3-methylphenyl)-5-((3,3-difluoro-1-methylpiperidin-4-yl)oxy)-6-methoxyquinazolin-4-amine]?
A: TGA weight loss (150° C., %): 3.0%; DSC endotherm (° C., peak): 106.7 °C

Q: With `COc1ccc2ncnc(Nc3ccc(Oc4cc5ncnn5cn4)c(C)c3)c2c1O[C@@H]1CCN(C)CC1(F)F` [Mesylate Type B, (R)-N-(4-([1,2,4]triazolo[1,5-c]pyrimidin-7-yloxy)-3-methylphenyl)-5-((3,3-difluoro-1-methylpiperidin-4-yl)oxy)-6-methoxyquinazolin-4-amine] as the molecule, how does the “TGA weight loss (150° C., %)” value read?
A: 7.6%

Q: And the “DSC endotherm (° C., peak)” value?
A: 63.4 °C

Q: For `COc1ccc2ncnc(Nc3ccc(Oc4cc5ncnn5cn4)c(C)c3)c2c1O[C@@H]1CCN(C)CC1(F)F` [Freebase Type C, (R)-N-(4-([1,2,4]triazolo[1,5-c]pyrimidin-7-yloxy)-3-methylphenyl)-5-((3,3-difluoro-1-methylpiperidin-4-yl)oxy)-6-methoxyquinazolin-4-amine], which “TGA weight loss (%, temp.)” value (free base forms, to 150° C.) is on record?
A: 1.5 (to 150° C.) %

Q: For `COc1ccc2ncnc(Nc3ccc(Oc4cc5ncnn5cn4)c(C)c3)c2c1O[C@@H]1CCN(C)CC1(F)F` [Amorphous Fumarate, (R)-N-(4-([1,2,4]triazolo[1,5-c]pyrimidin-7-yloxy)-3-methylphenyl)-5-((3,3-difluoro-1-methylpiperidin-4-yl)oxy)-6-methoxyquinazolin-4-amine], which “TGA weight loss (%, temp.)” value (fumarate forms, to 150° C.) is on record?
A: 3.6 (to 150° C.) %

Q: For `COc1ccc2ncnc(Nc3ccc(Oc4cc5ncnn5cn4)c(C)c3)c2c1O[C@@H]1CCN(C)CC1(F)F` [Phosphate Type A, (R)-N-(4-([1,2,4]triazolo[1,5-c]pyrimidin-7-yloxy)-3-methylphenyl)-5-((3,3-difluoro-1-methylpiperidin-4-yl)oxy)-6-methoxyquinazolin-4-amine], which “TGA weight loss (150° C., %)” value is on record?
A: 9.5%

Q: With `COc1ccc2ncnc(Nc3ccc(Oc4cc5ncnn5cn4)c(C)c3)c2c1O[C@@H]1CCN(C)CC1(F)F` [Freebase Type G, (R)-N-(4-([1,2,4]triazolo[1,5-c]pyrimidin-7-yloxy)-3-methylphenyl)-5-((3,3-difluoro-1-methylpiperidin-4-yl)oxy)-6-methoxyquinazolin-4-amine] as the molecule, how does the “TGA weight loss (%, temp.)” value (free base forms, to 70° C.) read?
A: 7.3 (to 70° C.) %

Q: What does the source list for `COc1ccc2ncnc(Nc3ccc(Oc4cc5ncnn5cn4)c(C)c3)c2c1O[C@@H]1CCN(C)CC1(F)F` [HCl Salt Type B, (R)-N-(4-([1,2,4]triazolo[1,5-c]pyrimidin-7-yloxy)-3-methylphenyl)-5-((3,3-difluoro-1-methylpiperidin-4-yl)oxy)-6-methoxyquinazolin-4-amine]?
A: TGA weight loss (150° C., %) (listed as HCl salt Type B): 2.3%; DSC endotherm (° C., peak) (listed as HCl salt Type B): 241.7 °C

Q: For `COc1ccc2ncnc(Nc3ccc(Oc4cc5ncnn5cn4)c(C)c3)c2c1O[C@@H]1CCN(C)CC1(F)F` [L-tartrate Type A, (R)-N-(4-([1,2,4]triazolo[1,5-c]pyrimidin-7-yloxy)-3-methylphenyl)-5-((3,3-difluoro-1-methylpiperidin-4-yl)oxy)-6-methoxyquinazolin-4-amine], which “TGA weight loss (150° C., %)” value is on record?
A: 3.7%
